Reference: publication PMC11928863 (Computational and Structural Biotechnology Journal, 2025)

Target: T1, CD2068 (Clostridioides difficile, UniProt Q188D7)
T1 sequence (Q188D7 1-541): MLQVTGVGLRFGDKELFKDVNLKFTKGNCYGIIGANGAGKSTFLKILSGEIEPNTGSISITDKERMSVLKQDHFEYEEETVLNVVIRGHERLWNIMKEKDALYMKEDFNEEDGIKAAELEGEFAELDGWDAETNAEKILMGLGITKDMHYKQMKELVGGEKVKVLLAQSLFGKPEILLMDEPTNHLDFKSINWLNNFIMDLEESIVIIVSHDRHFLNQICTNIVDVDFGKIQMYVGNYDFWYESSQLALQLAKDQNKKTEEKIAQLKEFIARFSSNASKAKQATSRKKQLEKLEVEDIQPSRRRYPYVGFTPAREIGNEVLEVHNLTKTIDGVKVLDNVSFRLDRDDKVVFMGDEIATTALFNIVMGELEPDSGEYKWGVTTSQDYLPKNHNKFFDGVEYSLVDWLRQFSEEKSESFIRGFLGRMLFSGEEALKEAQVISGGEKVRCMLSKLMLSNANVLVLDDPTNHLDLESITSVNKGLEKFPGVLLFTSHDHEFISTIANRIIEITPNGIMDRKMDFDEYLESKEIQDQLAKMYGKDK
Assay: malachite green ATPase assay, purified CD2068 with […] ATP
Format: biochemical

In the case of Nc1ncnc2c1ncn2[C@@H]1O[C@H](COP(=O)(O)OP(=O)(O)OP(=O)(O)O)[C@@H](O)[C@H]1O [ATP], the “malachite green ATPase assay, purified CD2068 with 1 mM ATP” value is reported as 52.52 nmol/min/mg.
